Reference: patent US11667649B2, “Heteroaromatic macrocyclic ether chemotherapeutic agents” (Nuvalent, Inc., priority 2020, dated 2023)
Where two headings read alike, the source gives them in different places.

Key:
[1] = cc_pd bond, 12-membered ring
ROS1-positive NSCLC = conditions: treatment of ROS1-positive NSCLC; cited from earlier work
ALK-wt kinase domain = target: T1, ALK-wt kinase domain (Homo sapiens, UniProt Q9UM73); test: Biochemical kinase assay, ALK-wt; conditions: 2 mM ATP substrate solution, read-out: Ki^app ALK-wt
T1 construct: TRKA-wt (1 nM, BPS Bio, 40280) kinase domains in buffer; purchased Carna 08-518
Summary of the method: (§1)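 Apparent Ki values come from fitting initial reaction rates against inhibitor concentration to the Morrison equation. Rates were taken from the linear phase of fluorogenic substrate phosphorylation (AQT0101 for ALK and ROS1, AQT0104 for TRKA; 26 μM in substrate solution with 2 mM ATP), monitored at 485 nm over 120 min at 30° C.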

TRKA-wt kinase domain = target: T2, TRKA-wt kinase domain (Homo sapiens, UniProt P04629); test: Biochemical kinase assay, TRKA-wt; conditions: 2 mM ATP substrate solution, read-out: Ki^app TRKA-wt
T2 construct: TRKA-wt (1 nM, BPS Bio, 40280) kinase domains in buffer; purchased BPS Bio 40280
Summary of the method: as §1

[2] = target: T3, ROS1-G2032R kinase domain (Homo sapiens, UniProt P08922, G2032R); test: Biochemical kinase assay, ROS1-G2032R; conditions: 2 mM ATP substrate solution, read-out: Ki^app ROS1-G2032R
T3 construct: TRKA-wt (1 nM, BPS Bio, 40280) kinase domains in buffer; purchased SignalChem R14-12BG
Summary of the method: as §1

[3] = target: T4, ALK L1196M/G1202R kinase domain (Homo sapiens, UniProt Q9UM73, G1202R/L1196M); test: Biochemical kinase assay, ALK L1196M/G1202R; conditions: 2 mM ATP substrate solution, read-out: Ki^app ALK-L1196M-G1202R
T4 construct: TRKA-wt (1 nM, BPS Bio, 40280) kinase domains in buffer; purchased SignalChem A19-12NG
Summary of the method: as §1

ROS1-wt kinase domain = target: T5, ROS1-wt kinase domain (Homo sapiens, UniProt P08922); test: Biochemical kinase assay, ROS1-wt; conditions: 2 mM ATP substrate solution, read-out: Ki^app ROS1-wt
T5 construct: TRKA-wt (1 nM, BPS Bio, 40280) kinase domains in buffer; purchased Carna 08-163
Summary of the method: as §1

[4] = test system: TPM3-NTRK1-wt IC50 / primary target (e.g. CD74-ROS1-wt) IC50, Ba/F3 cells; test: Cell assay TRKA selectivity (TRKA potency divided by primary target potency); assay type: cell-based
Summary of the method: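 IL-3-independent Ba/F3 lines stably expressing TPM3-TRKA or the primary fusion (e.g. CD74-ROS1 wt) were exposed to 3-fold compound dilutions for 72 h. Viability was read by CellTiter-Glo luminescence, with IC50 from four-parameter logistic fit. Selectivity is TPM3-NTRK1 IC50 divided by primary-target IC50, binned A (>30-fold) to D (<1).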

Structure (SMILES) | Ki (ALK-wt kinase domain) [µM] | Ki (TRKA-wt kinase domain) [µM] | Ki [2] [µM] | Ki [3] [µM] | Ki (ROS1-wt kinase domain) [µM] | further results
C[C@H]1Oc2cc(cnc2N)-c2c(C#N)cnn2Cc2cn(C)nc2-c2ccc(F)cc21 | – | – | – | – | – | ring closure, yield after HPLC ([1]; from C[C@@H](Oc1cc(Br)cnc1N)c1cc(F)ccc1-c1nn(C)cc1Cn1cc(C#N)cn1, Pd(OAc)2/cataCXium A/KOAc, 2-methyl-2-butanol, 32.0 mM, 120.0 °C): 15%
C[C@@H](Oc1cc(-c2cnn(C3CCNCC3)c2)cnc1N)c1c(Cl)ccc(F)c1Cl [Crizotinib, crizotinib] | – | – | – | – | – | median progression-free survival (ROS1-positive NSCLC): 9-19 months; overall response rate (ROS1-positive NSCLC): 60-80%
CC1Oc2cc(cnc2N)-c2c(nn(C)c2C#N)Cc2ccnn2-c2ccc(F)cc21 (centres unmarked) | – | – | – | – | – | ring closure, yield after HPLC ([1]; from CC(Oc1cc(Br)cnc1N)c1cc(F)ccc1-n1nccc1Cc1cc(C#N)n(C)n1, Pd(OAc)2/cataCXium A/KOAc, 2-methyl-2-butanol, 20.0 mM, 120.0 °C): 17%
CCc1noc2c1-c1cnc(N)c(n1)O[C@H](C)c1cc(F)ccc1-c1nn(C)cc1C2 | – | – | – | – | – | ring closure, yield after HPLC ([1]; from CCc1cc(Cc2cn(C)nc2-c2ccc(F)cc2[C@@H](C)Oc2nc(Br)cnc2N)on1, Pd(OAc)2/cataCXium A/KOAc, 2-methyl-2-butanol, 20.0 mM, 120.0 °C, 6.0 h): 24%
CCn1ncc2c1-c1cnc(N)c(c1)O[C@H](C)c1cc(F)ccc1-c1nn(C)cc1C2 | – | – | – | – | – | ring closure, yield after HPLC ([1]; from CCn1ncc(Cc2cn(C)nc2-c2ccc(F)cc2[C@@H](C)Oc2cc(Br)cnc2N)c1Br, B2pin2/Pd(OAc)2/cataCXium A/NaOH, MeOH/H2O, 41.0 mM, 80.0 °C, 12.0 h): 10%
CC(Oc1cc(Br)cnc1N)c1cc(F)ccc1-c1c(Cn2cnc(C#N)c2)cnn1C (centres unmarked) | – | – | – | – | – | ring closure, yield after HPLC ([1]; the molecule shown is the open-chain precursor, Pd(OAc)2/cataCXium A/KOAc, 2-methyl-2-butanol, 30.0 mM, 120.0 °C): 5.9%
CCn1ncc2c1-c1cnc(N)c(c1)OC(C)c1cc(F)ccc1-c1nccn1C2 (centres unmarked) | – | – | – | – | – | ring closure, yield after HPLC ([1]; from CCn1ncc(Cn2ccnc2-c2ccc(F)cc2C(C)Oc2cc(Br)cnc2N)c1Br, B2pin2/Pd(OAc)2/cataCXium A/NaOH, MeOH/H2O, 57.0 mM, 75.0 °C, 3.0 h): 10%
CCc1nn(C)c2c1-c1cnc(N)c(c1)OCc1cc(F)ccc1-c1ncccc1C2 [Example 170, 3-ethyl-17-fluoro-5-methyl-21-oxa-4,5,12,24-tetraazapentacyclo[20.3.1.0^2,^6.0^8,^13.0^14,^19]hexacosa-1(25),2(6),3,8(13),9,11,14,16,18,22(26),23-undecaen-23-amine] | – | – | – | – | – | TPM3-NTRK1-wt/CD74-ROS1-G2032R ([4]; TRKA selectivity ratio: TPM3-NTRK1-wt IC50 / CD74-ROS1-G2032R IC50, Ba/F3 cells): A (bin A for very high selectivity, ratio>30-fold); TPM3-NTRK1-wt/CD74-ROS1-wt ([4]; TRKA selectivity ratio: TPM3-NTRK1-wt IC50 / CD74-ROS1-wt IC50, Ba/F3 cells): A (bin A for very high selectivity, ratio>30-fold); TPM3-NTRK1-wt/EML4-ALK-L1196M-G1202R ([4]; TRKA selectivity ratio: TPM3-NTRK1-wt IC50 / EML4-ALK-L1196M-G1202R IC50, Ba/F3 cells): B (bin B for high selectivity, ratio>10-fold); TPM3-NTRK1-wt/EML4-ALK-wt ([4]; TRKA selectivity ratio: TPM3-NTRK1-wt IC50 / EML4-ALK-wt IC50, Ba/F3 cells): A (bin A for very high selectivity, ratio>30-fold); ring closure, yield after HPLC ([1]; from CCc1nn(C)c(Cc2cccnc2-c2ccc(F)cc2COc2cc(Br)cnc2N)c1Br, B2pin2/Pd(OAc)2/cataCXium A/CsF, MeOH/H2O, 17.0 mM, 80.0 °C, 5.0 h): 3.3%

Further lines, with some results ahead:

Ki (ALK-wt kinase domain) [µM] | Ki (TRKA-wt kinase domain) [µM] | Ki [2] [µM] | Ki [3] [µM] | Ki (ROS1-wt kinase domain) [µM] | Structure (SMILES) | further results
< 0.05 | 0.05 to 0.5 | < 0.05 | < 0.05 | < 0.05 | CCn1nc(Cl)c2c1-c1cnc(N)c(c1)O[C@H](C)c1cc(F)ccc1-c1nn(C)cc1C2 [Compound 73] | –
< 0.05 | < 0.05 | < 0.05 | < 0.05 | < 0.05 | CCn1ncc2c1-c1ccc(F)cc1[C@@H](C)Oc1cc(cnc1N)-c1c(cnn1C)C2 [Compound 4] | –
< 0.05 | < 0.05 | < 0.05 | < 0.05 | < 0.05 | CCc1onc2c1-c1cnc(N)c(c1)O[C@H](C)c1cc(F)ccc1-c1nn(C)cc1C2 [Compound 152] | –
< 0.05 | < 0.05 | < 0.05 | < 0.05 | < 0.05 | CCn1ncc2c1-c1cnc(N)c(c1)O[C@H](C)c1cc(F)ccc1-c1nccn1C2 [Compound 31] | –
< 0.05 | 0.05 to 0.5 | < 0.05 | < 0.05 | < 0.05 | COc1cc2n(n1)-c1ccc(F)cc1[C@@H](C)Oc1cc(cnc1N)-c1c(c(C)nn1CC1CC1)C2 [Compound 124] | –
< 0.05 | 0.05 to 0.5 | < 0.05 | < 0.05 | < 0.05 | CCn1nc(OC)c2c1-c1cnc(N)c(c1)O[C@H](C)c1cc(F)ccc1-c1nn(C)cc1C2 [Compound 181] | –
< 0.05 | > 0.5 | < 0.05 | < 0.05 | < 0.05 | C[C@H]1Oc2cc(cnc2N)-c2c(CC(F)F)noc2Cc2cn(C)nc2-c2ccc(F)cc21 [Compound 85] | –
< 0.05 | 0.05 to 0.5 | < 0.05 | < 0.05 | < 0.05 | CCn1nnc2c1-c1cnc(N)c(c1)O[C@H](C)c1cc(F)ccc1-n1nc(C(F)(F)F)cc1C2 [Compound 107] | –
< 0.05 | < 0.05 | < 0.05 | < 0.05 | < 0.05 | CCn1nc(OC)c2c1-c1cnc(N)c(c1)O[C@H](C)c1cc(F)ccc1-n1nc(C(F)F)cc1C2 [Compound 147] | –
< 0.05 | 0.05 to 0.5 | < 0.05 | < 0.05 | < 0.05 | Cc1nc2c(s1)Cn1ncc(C#N)c1-c1cnc(N)c(c1)O[C@H](C)c1cc(F)ccc1-2 [Compound 67] | –
< 0.05 | > 0.5 | < 0.05 | < 0.05 | < 0.05 | CCn1ncc2c1-c1cnc(N)c(c1)OCc1cc(F)ccc1-n1nc(C(F)(F)F)cc1C2 [Compound 92] | –
